Data from ChEMBL document CHEMBL5661943, “ASAP - In vitro antiviral effect” (2024).

What was measured:
Zika virus = test: Functional CPE-based assay to measure dose dependent changes in antiviral-drug inhibitory efficacy against Zika virus MR766 in Vero E6 miRFP670 cells (cotreated with P-gp inhibitor, CP100356). Cells are treated with antiviral candidates that are serially diluted. EC50 is reported via analysis of MTS assay as a readout of CPE. The assay has been performed by KU Leuven.; format: organism-based, Chlorocebus sabaeus, Vero C1008
dengue virus type 2 = test: Functional assay to measure dose dependent changes in antiviral-drug inhibitory efficacy against Dengue virus type 2 New Guinea C in Vero E6 miRFP670 cells (cotreated with P-gp inhibitor, CP100356). Cells are treated with antiviral candidates that are serially diluted, following infection, cells are fixed. EC50 is reported via analysis of fluorescence intensity using high-content imager. The …; format: organism-based, Chlorocebus sabaeus, Vero C1008; conditions: for EC90: P-gp concentration 500 nM, P-gp inhibitor CP100356

O=C(Nc1cc(Br)c2c(c1)CNC2)c1cc(F)cc2[nH]ncc12
EC50 (Zika virus; Zika virus, Vero C1008): 1.56 µM
EC90 (Zika virus; Zika virus, Vero C1008, Baseline response 0 %, Hill slope 40.279, Maximum measured 114.894 %, Maximum response 100 %, Minimum measured 2.051 %, P-gp concentration 500 nM, R squared 0.957, P-gp inhibitor CP100356): 1.65 µM
EC50 (dengue virus type 2; Dengue virus, Vero C1008): > 50 µM
EC90 (dengue virus type 2; Dengue virus, Vero C1008, Baseline response 0 %, Hill slope -0.743, Maximum measured 120.32 %, Maximum response 100 %, Minimum measured 52.999 %, R squared 0.166): > 50 µM

O=C1Nc2ccc(C(=O)Nc3ccc4c(c3)CNC4)cc2C1=O
EC50 (Zika virus; Zika virus, Vero C1008): > 50 µM
EC90 (Zika virus; Zika virus, Vero C1008, Baseline response 0 %, Hill slope 1.301, Maximum measured 24.355 %, Maximum response 100 %, Minimum measured -0.531 %, P-gp concentration 500 nM, R squared 0.91, P-gp inhibitor CP100356): > 50 µM
EC50 (dengue virus type 2; Dengue virus, Vero C1008): > 50 µM
EC90 (dengue virus type 2; Dengue virus, Vero C1008, Maximum measured 138.129 %, Minimum measured 92.792 %): > 50 µM

COc1ccccc1-c1nc2c(C(=O)Nc3ccc4c(c3)CNC4)cc(F)cc2[nH]1
EC50 (Zika virus; Zika virus, Vero C1008): > 50 µM
EC90 (Zika virus; Zika virus, Vero C1008, Baseline response 0 %, Hill slope 1.211, Maximum measured 45.367 %, Maximum response 100 %, Minimum measured -3.491 %, P-gp concentration 500 nM, R squared 0.953, P-gp inhibitor CP100356): > 50 µM
EC50 (dengue virus type 2; Dengue virus, Vero C1008): > 12.5 µM
EC90 (dengue virus type 2; Dengue virus, Vero C1008, Baseline response 0 %, Hill slope -1.284, Maximum measured 263.72 %, Maximum response 267.598 %, Minimum measured 165.032 %, R squared 0.972): > 12.5 µM

O=C(Nc1ccc2c(c1)CNC2)c1cccc2nc(O)ccc12
EC50 (Zika virus; Zika virus, Vero C1008): > 50 µM
EC90 (Zika virus; Zika virus, Vero C1008, Maximum measured -4.519 %, Minimum measured -18.451 %, P-gp concentration 500 nM, P-gp inhibitor CP100356): > 50 µM
EC50 (dengue virus type 2; Dengue virus, Vero C1008): > 50 µM
EC90 (dengue virus type 2; Dengue virus, Vero C1008, Maximum measured 128.112 %, Minimum measured 90.404 %): > 50 µM

Cc1nc2c(C(=O)Nc3ccc4c(c3)CNC4)cc(Cl)cc2[nH]1
EC50 (Zika virus; Zika virus, Vero C1008): > 50 µM
EC90 (Zika virus; Zika virus, Vero C1008, Maximum measured 8.786 %, Minimum measured -9.149 %, P-gp concentration 500 nM, P-gp inhibitor CP100356): > 50 µM
EC50 (dengue virus type 2; Dengue virus, Vero C1008): > 6.25 µM
EC90 (dengue virus type 2; Dengue virus, Vero C1008, Baseline response 0 %, Hill slope -1.031, Maximum measured 89.345 %, Maximum response 100 %, Minimum measured 48.357 %, R squared 0.44): > 6.25 µM

CO[C@H]1C[C@H](n2ncc3c(C(=O)Nc4ccc5c(c4)CNC5)cc(Cl)cc32)C1
EC50 (Zika virus; Zika virus, Vero C1008): 3.1 µM
EC90 (Zika virus; Zika virus, Vero C1008): 3.53 µM
EC50 (dengue virus type 2; Dengue virus, Vero C1008): > 12.5 µM
EC90 (dengue virus type 2; Dengue virus, Vero C1008, Baseline response 0 %, Hill slope 0.569, Maximum measured 146.378 %, Maximum response 100 %, Minimum measured 74.589 %, R squared 0.043): > 12.5 µM

N#Cc1ccc(-c2nc3c(C(=O)Nc4ccc5c(c4)CNC5)cc(F)cc3[nH]2)cc1
EC90 (Zika virus; Baseline response 0 %, Hill slope 0.2, Maximum measured 29.739 %, Maximum response 100 %, Minimum measured 4.071 %, P-gp concentration 500 nM, R squared 0.256, P-gp inhibitor CP100356): > 50 µM
EC50 (Zika virus; Zika virus, Vero C1008): > 50 µM
EC90 (Zika virus; Zika virus, Vero C1008, Baseline response 0 %, Hill slope 0.539, Maximum measured 18.428 %, Maximum response 100 %, Minimum measured 0.213 %, P-gp concentration 500 nM, R squared 0.888, P-gp inhibitor CP100356): > 50 µM
EC90 (dengue virus type 2; Dengue virus, Vero C1008, Maximum measured 143.39 %, Minimum measured 94.915 %): > 50 µM
EC90 (dengue virus type 2; Dengue virus, Vero C1008, Maximum measured 155.678 %, Minimum measured 70.057 %): > 6.25 µM
EC50 (dengue virus type 2; vero c1008): > 50 µM

O=C(NCCC1CC1)[C@H](Nc1ccc2c(c1)CNC2)c1cc(Cl)cc(C2CC2)c1
EC50 (Zika virus; Zika virus, Vero C1008): 5.72 µM
EC90 (Zika virus; Zika virus, Vero C1008, Baseline response 0 %, Hill slope 7.335, Maximum measured 65.758 %, Maximum response 100 %, Minimum measured 0.052 %, P-gp concentration 500 nM, R squared 0.996, P-gp inhibitor CP100356): > 6.25 µM
EC50 (dengue virus type 2; Dengue virus, Vero C1008): > 12.5 µM
EC90 (dengue virus type 2; Dengue virus, Vero C1008, Baseline response 0 %, Hill slope -1.051, Maximum measured 118.853 %, Maximum response 100 %, Minimum measured 76.41 %, R squared 0.201): > 12.5 µM

O=C(Nc1cc(Cl)cc(-c2cnn(Cc3ccc(C(=O)O)cc3)c2)c1)OCc1ccccc1
EC50 (Zika virus; Zika virus, Vero C1008): > 50 µM
EC90 (Zika virus; Zika virus, Vero C1008, Baseline response 0 %, Hill slope 1.126, Maximum measured 43.56 %, Maximum response 100 %, Minimum measured -3.769 %, P-gp concentration 500 nM, R squared 0.488, P-gp inhibitor CP100356): > 50 µM
EC50 (dengue virus type 2; Dengue virus, Vero C1008): 25 µM
EC90 (dengue virus type 2; Dengue virus, Vero C1008, Baseline response 0 %, Hill slope -21.178, Maximum measured 148.823 %, Maximum response 100 %, Minimum measured 10.822 %, R squared 0.564): 27.8 µM

COc1cc(Br)cc(C(=O)Nc2ccc3c(c2)CNC3)c1
EC50 (Zika virus; Zika virus, Vero C1008): 12.8 µM
EC90 (Zika virus; Zika virus, Vero C1008, Baseline response 0 %, EC90 CI (lower) 14.493 uM, EC90 CI (upper) 28.879 uM, Hill slope 4.703, Maximum measured 104.946 %, Maximum response 100 %, Minimum measured 1.527 %, P-gp concentration 500 nM, R squared 0.964, P-gp inhibitor CP100356): 20.5 µM
EC50 (dengue virus type 2; Dengue virus, Vero C1008): > 25 µM
EC90 (dengue virus type 2; Dengue virus, Vero C1008, Baseline response 0 %, Hill slope -0.242, Maximum measured 88.855 %, Maximum response 100 %, Minimum measured 49.171 %, R squared 0.071): > 25 µM

FC(F)(F)Oc1cc(Cl)cc2c(Cc3ccc(-c4nnn[nH]4)cc3)c[nH]c12
EC50 (Zika virus; Zika virus, Vero C1008): 20.6 µM
EC90 (Zika virus; Zika virus, Vero C1008, Baseline response 0 %, Hill slope 5.381, Maximum measured 73.735 %, Maximum response 100 %, Minimum measured 0.486 %, P-gp concentration 500 nM, R squared 0.994, P-gp inhibitor CP100356): > 25 µM
EC50 (dengue virus type 2; Dengue virus, Vero C1008): 11.9 µM
EC90 (dengue virus type 2; Dengue virus, Vero C1008, Baseline response 0 %, Hill slope -33.999, Maximum measured 142.465 %, Maximum response 100 %, Minimum measured 16.781 %, R squared 0.605): > 12.5 µM

O=C(Nc1ccc2c(c1)CNC2)c1cc(F)cc(-c2c[nH]c(=O)c(F)c2)c1
EC50 (Zika virus; Zika virus, Vero C1008): > 50 µM
EC90 (Zika virus; Zika virus, Vero C1008, Maximum measured 1.475 %, Minimum measured -1.93 %, P-gp concentration 500 nM, P-gp inhibitor CP100356): > 50 µM
EC50 (dengue virus type 2; Dengue virus, Vero C1008): > 25 µM
EC90 (dengue virus type 2; Dengue virus, Vero C1008, Baseline response 0 %, Hill slope 1.228, Maximum measured 158.309 %, Maximum response 100 %, Minimum measured 64.759 %, R squared 0.303): > 25 µM

O=C(Nc1ccc2c(c1)CNC2)c1ccc2c(C3=CCNCC3)csc2c1
EC50 (Zika virus; Zika virus, Vero C1008): 9.31 µM
EC90 (Zika virus; Zika virus, Vero C1008, Baseline response 0 %, Hill slope 1.989, Maximum measured 64.405 %, Maximum response 100 %, Minimum measured 3.372 %, P-gp concentration 500 nM, R squared 0.951, P-gp inhibitor CP100356): > 12.5 µM
EC50 (dengue virus type 2; Dengue virus, Vero C1008): 1.33 µM
EC90 (dengue virus type 2; Dengue virus, Vero C1008, Baseline response 0 %, Hill slope -1.321, Maximum measured 86.909 %, Maximum response 100 %, Minimum measured 20.548 %, R squared 0.914): > 6.25 µM

O=C(Nc1ccc2c(c1)CNC2)c1cc(F)cc(-c2cnc(C3CC3)s2)c1
EC50 (Zika virus; Zika virus, Vero C1008): 5.37 µM
EC90 (Zika virus; Zika virus, Vero C1008, Baseline response 0 %, Hill slope 4.772, Maximum measured 67.326 %, Maximum response 100 %, Minimum measured 1.512 %, P-gp concentration 500 nM, R squared 0.988, P-gp inhibitor CP100356): > 6.25 µM
EC50 (dengue virus type 2; Dengue virus, Vero C1008): 11.6 µM
EC90 (dengue virus type 2; Dengue virus, Vero C1008, Baseline response 0 %, Hill slope -1.802, Maximum measured 130.062 %, Maximum response 100 %, Minimum measured 44.88 %, R squared 0.382): > 12.5 µM

CC(C)(C)OC(=O)N1Cc2ccc(N[C@H](C(=O)O)c3cc(Cl)cc4[nH]ncc34)cc2C1
EC50 (Zika virus; Zika virus, Vero C1008): > 50 µM
EC90 (Zika virus; Zika virus, Vero C1008, Baseline response 0 %, Hill slope -0.446, Maximum measured 2.879 %, Maximum response 100 %, Minimum measured -1.465 %, P-gp concentration 500 nM, R squared 0.442, P-gp inhibitor CP100356): > 50 µM
EC50 (dengue virus type 2; Dengue virus, Vero C1008): > 50 µM
EC90 (dengue virus type 2; Dengue virus, Vero C1008, Maximum measured 176.94 %, Minimum measured 116.898 %): > 50 µM

O=C(Nc1ccc2c(c1)CNC2)c1cc(Cl)cc2[nH]c(-c3c[nH]c(=O)c(Br)c3)nc12
EC50 (Zika virus; Zika virus, Vero C1008): > 50 µM
EC90 (Zika virus; Zika virus, Vero C1008, Baseline response 0 %, Hill slope 0.525, Maximum measured 33.05 %, Maximum response 100 %, Minimum measured 2.151 %, P-gp concentration 500 nM, R squared 0.865, P-gp inhibitor CP100356): > 50 µM
EC50 (dengue virus type 2; Dengue virus, Vero C1008): > 50 µM
EC90 (dengue virus type 2; Dengue virus, Vero C1008, Maximum measured 259.566 %, Minimum measured 84.768 %): > 50 µM

O=C(NCc1cccnc1)[C@H](Nc1ccc2c(c1)CNC2)c1cc(Cl)cc2[nH]ncc12
EC50 (Zika virus; Zika virus, Vero C1008): > 50 µM
EC90 (Zika virus; Zika virus, Vero C1008, Maximum measured -0.377 %, Minimum measured -17.936 %, P-gp concentration 500 nM, P-gp inhibitor CP100356): > 50 µM
EC50 (dengue virus type 2; Dengue virus, Vero C1008): > 50 µM
EC90 (dengue virus type 2; Dengue virus, Vero C1008, Maximum measured 132.553 %, Minimum measured 89.084 %): > 50 µM

N#Cc1cccc(-c2nc3c(C(=O)Nc4ccc5c(c4)CNC5)cc(Cl)cc3[nH]2)c1
EC50 (Zika virus; Zika virus, Vero C1008): > 3.12 µM
EC90 (Zika virus; Zika virus, Vero C1008, Baseline response 0 %, Hill slope 0.859, Maximum measured 7.667 %, Maximum response 100 %, Minimum measured 0.919 %, P-gp concentration 500 nM, R squared 0.501, P-gp inhibitor CP100356): > 3.12 µM
EC50 (dengue virus type 2; Dengue virus, Vero C1008): > 50 µM
EC90 (dengue virus type 2; Dengue virus, Vero C1008, Maximum measured 129.968 %, Minimum measured 100.984 %): > 50 µM

C=CC[C@H]1NCc2cc(NC(=O)c3cc(F)cc4c3CC(=O)N4)ccc21
EC50 (Zika virus; Zika virus, Vero C1008): 8.05 µM
EC90 (Zika virus; Zika virus, Vero C1008): 19.4 µM
EC50 (dengue virus type 2; Dengue virus, Vero C1008): > 50 µM
EC90 (dengue virus type 2; Dengue virus, Vero C1008, Baseline response 0 %, Hill slope 1.022, Maximum measured 178.628 %, Maximum response 100 %, Minimum measured 80.7 %, R squared 0.039): > 50 µM

O=C(Nc1ccc2c(c1)CNC2)c1cccc2[nH]c(=O)[nH]c12
EC50 (Zika virus; Zika virus, Vero C1008): > 50 µM
EC90 (Zika virus; Zika virus, Vero C1008, Maximum measured 11.079 %, Minimum measured -6.229 %, P-gp concentration 500 nM, P-gp inhibitor CP100356): > 50 µM
EC50 (dengue virus type 2; Dengue virus, Vero C1008): > 12.5 µM
EC90 (dengue virus type 2; Dengue virus, Vero C1008, Baseline response 0 %, Hill slope 0.241, Maximum measured 94.031 %, Maximum response 100 %, Minimum measured 72.295 %, R squared 0.287): > 12.5 µM
